In paper PMC7645366 (EMBO Molecular Medicine, 2020):
“And” between values parts separate entries of the source, which are not always exact repeats. Identical values can stand only once. Like-named read-outs stand apart in the source and are kept apart here.

Key:
PLY [1] = molecular target: T1, PLY (Streptococcus pneumoniae serotype 4, UniProt P0C2J9); type: cell-based
PLY [2] = molecular target: T1, PLY; settings: 18 h
SLO = SLO (Streptococcus pyogenes serotype M1, UniProt P0C0I3); type: cell-based; settings: 100uM; 18 h
Chain of SLO (P0C0I3 34-571 limits assumed): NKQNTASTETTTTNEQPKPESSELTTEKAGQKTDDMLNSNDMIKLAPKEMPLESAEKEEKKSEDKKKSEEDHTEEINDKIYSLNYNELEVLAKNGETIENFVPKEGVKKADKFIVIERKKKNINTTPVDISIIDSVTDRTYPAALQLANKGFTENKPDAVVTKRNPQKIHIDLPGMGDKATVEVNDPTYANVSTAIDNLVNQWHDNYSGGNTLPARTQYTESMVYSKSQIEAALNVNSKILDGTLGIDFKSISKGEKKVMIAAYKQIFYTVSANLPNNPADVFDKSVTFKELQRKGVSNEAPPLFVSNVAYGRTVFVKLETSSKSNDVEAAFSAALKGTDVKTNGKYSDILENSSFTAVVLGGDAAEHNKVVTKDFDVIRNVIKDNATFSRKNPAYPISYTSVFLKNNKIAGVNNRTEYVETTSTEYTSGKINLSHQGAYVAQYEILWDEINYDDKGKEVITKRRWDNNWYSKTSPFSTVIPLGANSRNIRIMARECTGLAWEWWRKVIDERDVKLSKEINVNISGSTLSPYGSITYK

PLY [3] = molecular target: T1, PLY; type: cell-based; settings: 100uM; 18 h
LLO [4] = molecular target: T2, LLO (Listeria monocytogenes serovar 1/2a, UniProt P13128); test: Cytokine ELISA, THP-1 macrophages stimulated with LLO; type: cell-based; settings: LLO 0.5 μg/ml, 100uM, 18 h
T2 sequence (P13128 25-529): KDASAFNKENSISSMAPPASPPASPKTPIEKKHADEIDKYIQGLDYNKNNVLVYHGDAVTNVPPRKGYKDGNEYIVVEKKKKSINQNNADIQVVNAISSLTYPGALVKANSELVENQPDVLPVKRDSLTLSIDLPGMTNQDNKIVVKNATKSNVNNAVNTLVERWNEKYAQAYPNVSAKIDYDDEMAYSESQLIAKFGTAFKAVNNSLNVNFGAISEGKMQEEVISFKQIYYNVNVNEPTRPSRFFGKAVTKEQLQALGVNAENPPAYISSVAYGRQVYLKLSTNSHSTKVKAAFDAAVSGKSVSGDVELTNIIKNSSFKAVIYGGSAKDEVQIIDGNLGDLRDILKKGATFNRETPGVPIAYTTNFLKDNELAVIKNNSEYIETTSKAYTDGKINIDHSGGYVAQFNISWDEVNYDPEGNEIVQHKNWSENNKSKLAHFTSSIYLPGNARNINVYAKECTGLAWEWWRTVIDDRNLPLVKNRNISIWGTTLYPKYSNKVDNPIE
Protocol: (§1) Human monocytic leukemia THP‐1 cells (ATCC TIB‐202) were cultivated in R10 medium and maintained at density of 10^6 cells/ml. For differentiation into macrophages, THP‐1 cells were treated for 48 h with 20 ng/ml of phorbol myristate acetate (Sigma).

LLO [5] = molecular target: T2, LLO; test: LDH cytotoxicity assay, THP-1 macrophages, LLO; type: cell-based; settings: THP-1, LLO 0.5 μg/ml, 100 μM, 18 h
Protocol: as §1
Cytotoxicity was determined by measuring the activity of lactate dehydrogenase enzyme released into the culture supernatant using the Cytotoxicity Detection kit (Roche) according to the manufacturer's instructions. The percentage cytotoxicity was calculated by ratio to 100% lysis control (0.1% saponin).

T1 sequence (P0C2J9 whole entry, looked up): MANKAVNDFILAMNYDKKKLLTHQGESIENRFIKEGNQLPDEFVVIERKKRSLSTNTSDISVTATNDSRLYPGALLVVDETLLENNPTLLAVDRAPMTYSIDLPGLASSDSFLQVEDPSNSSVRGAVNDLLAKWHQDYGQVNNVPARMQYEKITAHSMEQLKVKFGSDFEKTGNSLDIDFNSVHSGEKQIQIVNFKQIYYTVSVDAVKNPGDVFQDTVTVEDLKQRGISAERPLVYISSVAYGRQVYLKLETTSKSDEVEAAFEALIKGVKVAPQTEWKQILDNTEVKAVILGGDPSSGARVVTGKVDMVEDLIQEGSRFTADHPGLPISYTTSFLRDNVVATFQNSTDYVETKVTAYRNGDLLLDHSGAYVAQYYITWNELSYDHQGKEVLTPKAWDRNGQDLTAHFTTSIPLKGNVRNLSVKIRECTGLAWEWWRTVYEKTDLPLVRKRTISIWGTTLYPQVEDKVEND

Compound	cytolysis by PLY in live imaging (PLY [1])	% cytotoxicity relative to positive control (lysis buffer), LDH (PLY [2]; 100 μM)	% cytotoxicity relative to positive control (lysis buffer), LDH (PLY [2]) [%]	IL-8 levels in THP-1 macrophages (SLO)	IL-8 levels in THP-1 macrophages (PLY [3])	IL-8 levels in THP-1 macrophages (LLO [4]; experiment 1 of 3) [pg/mL]	IL-8 levels in THP-1 macrophages (LLO [4]; experiment 2 of 3) [pg/mL]	IL-8 levels in THP-1 macrophages (LLO [4]; experiment 3 of 3) [pg/mL]	% cytotoxicity relative to positive control (lysis buffer), LDH (LLO [5]; experiment 1 of 4) [%]	% cytotoxicity relative to positive control (lysis buffer), LDH (LLO [5]; experiment 2 of 4) [%]	% cytotoxicity relative to positive control (lysis buffer), LDH (LLO [5]; experiment 3 of 4) [%]	% cytotoxicity relative to positive control (lysis buffer), LDH (LLO [5]; experiment 4 of 4) [%]
CC(C)CCC[C@@H](C)[C@H]1CC[C@H]2[C@@H]3CC=C4C[C@@H](O)CC[C@]4(C)[C@H]3CC[C@]12C [CHO, Cholesterol, reference compound]	protection from PLY induced cytolysis	27.36% and 42.05% and 42.16%	35.29	79.6 pg/mL and 72.8 pg/mL and 144.9 pg/mL	104 pg/mL and 72.9 pg/mL and 80.5 pg/mL	112.8	87.2	126.9	42.88	43.52	31.62	53.89
Bovine serum albumin [BSA]	cytolysis											
